Test results: paper PMC3430621, “HPLC–MS/MS Analysis of a Traditional Chinese Medical Formulation of Bu-Yang-Huan-Wu-Tang and Its Pharmacokinetics after Oral Administration to Rats” (PLoS ONE, 2012)
Like-named read-outs stand apart in the source and are kept apart here.

Legend:
[1] = Stability of the analytes in rat plasma samples (freeze-thaw, short-term, long-term, autosampler); type: in vitro ADME; conditions: n = 3; for Stability (%) Autosampler stability: autosampler 8°C 12 h; for Stability (%) Short-term stability: room temperature 6 h; for Stability (%) Freeze-thaw stability: three freeze-thaw cycles; for Stability (%) Long-term stability: −20°C 14 days
Method: Stability was also assessed using the low, medium and high concentrations of analytes. Freeze-thaw stability was assessed over three freeze-thaw cycles. Short-term stability was determined by placing the samples at room temperature for 6 h. Long-term stability was evaluated by analyzing samples kept at −20°C for 14 days. Autosampler stability was determined by maintaining the samples at the autosampler temperature (8°C) for 12 h. All stabilities were calculating as the ratio of average concentration and freshly prepared samples.

[2] = Pharmacokinetics in conscious freely moving rats after oral administration of BYHWT extract (HPLC-MS/MS of plasma); type: in vivo, Sprague-Dawley rats
From the text: The protocol listed below has been reviewed and approved by the Institutional Animal Care and Use Committee (IACUC; approval number 1010409) by the Institutional Animal Experimentation Committee of the National Yang-Ming University. Male pathogen-free Sprague-Dawley rats (250±50 g body weight) were obtained from the Laboratory Animal Center of National Yang Ming University. The animals had free access to food (Laboratory rodent diet 5P14, PMI Feeds, Richmond, IN, USA) and water was allowed at all times. All animal experiments followed the National Yang-Ming University guidelines and procedures for the care of laboratory animals. […] Experimental rats were initially anesthetized with pentobarbital (50 mg/kg, i.p.), and polyethylene tubing was implanted in the right jugular vein for blood sampling. The tube crossed the subcutaneous tissue and was fixed at its exit from the dorsal neck region. The patency tubing was maintained by filling with heparinized saline (20 units/mL). After surgery, the rats were placed in experimental cages and allowed to recuperate for one day. The rats were kept fasted for 12 h and water were available ad libitum before the BYHWT administration. […] In our study, the dose of BYHWT (10 g/kg) was appropriate for oral administration in rats. […] The condensed blood collection in the absorption phase is to figure out the maximum concentration and the time when it reaches the maximum concentration. The time points in the elimination phase are not close. This strategy is commonly used in the pharmacokinetic studies but the total blood consumption should not be over 20% of body blood. In these experimental rats, the total blood sampling volume is within 20% during 12 h. Plasma was separated by centrifuging the blood sample at 6000 rpm for 10 min at 4°C. […] The samples were vortexed and centrifuged at 16,100×g for 10 min. In our micro-analysis, less than 200 μL is needed. Actually, the collected blood volume is around 120-150 μL for each time point. After centrifugation, the plasma samples (50 μL) were vortex-mixed with 100 μL of acetonitrile. The supernatants were collected and filtered. Around 20 μL aliquot of the supernatants was transferred into the vial for analysis by HPLC-MS/MS system. The acetonitrile but not the real sample was used in the needle pre-wash standard procedure [19]. The LC-MS/MS system consisted of an Agilent 1100 series LC with automatic liquid chromatographic sampler, injector, bi-pump and degasser; and Applied Biosystems/MDS Sciex API 3000 tandem quadrupole mass spectrometry equipped with electrospray ionization (ESI) interface using the following parameters: nebulizer gas (NEB):10, curtain gas (CUR): 7, collisionally activated dissociation gas (CAD): 12, ionspray voltage (IS): 5000 V, turbo ionspray temperature (TEM): 450°C. Nitrogen was used in all cases. The mass spectrometer was operated in the positive ion detection mode. […] The following linear gradient program was applied to the analyte with the mobile phase consisting of methanol (0.1% formic acid, solvent A) and NH4OAc (0.1% formic acid, solvent B): 0-1 min: 30-70% A; 1-2 min 70-90%; 2-8 min: 90-90%; 8-9 min: 90-30%, 9-18 min: 30-30%, v/v. […] The flow rate was maintained at […]. Pharmacokinetic parameters including maximum plasma concentration (Cmax), time to reach the maximum concentrations (Tmax), half-life (t1/2), area under concentration-time curve (AUC) and oral clearance (CL) were estimated by a non-compartmental analysis using the pharmacokinetic program, WinNonlin Standard Edition Version 1.1 (Scientific Consulting, Apex, NC, USA). All results were expressed as average mean ± standard deviation (S.D.). ANOVA was used to evaluate differences, and a value of P<0.05 was taken as statistically significant.

[3] = male, Sprague-Dawley, po, rat plasma, BYHWT extract 10 g/kg p.o., n = 6, read-out: Cmax
[4] = male, Sprague-Dawley, po, rat plasma, BYHWT extract 10 g/kg p.o., n = 6, read-out: Tmax (converted)
[5] = male, Sprague-Dawley, po, rat plasma, BYHWT extract 10 g/kg p.o., n = 6, read-out: t1/2
[6] = rat plasma, BYHWT extract 10 g/kg p.o.
[7] = male, Sprague-Dawley, rat, in vivo, po, 10 g/kg

## COc1ccc(-c2coc3cc(O)ccc3c2=O)cc1 [Formononetin, formononetin]
[1]; concentration 10 (µg/mL)
  Stability (%) Autosampler stability: −13±4.1%
  Stability (%) Short-term stability: −3.4±12%
  Stability (%) Freeze-thaw stability: −4.9±3.8%
  Stability (%) Long-term stability: −13±5.5%
[1]; concentration 100 (µg/mL)
  Stability (%) Autosampler stability: −4.6±11%
  Stability (%) Short-term stability: 1.1±10%
  Stability (%) Freeze-thaw stability: 5.8±10%
  Stability (%) Long-term stability: −12±7.5%
[1]; concentration 1000 (µg/mL)
  Stability (%) Autosampler stability: 0.8±12%
  Stability (%) Short-term stability: 1.5±10.4%
  Stability (%) Freeze-thaw stability: −3.5±6.0%
  Stability (%) Long-term stability: 1.0±6.4%
[2]; [3]
  Cmax: 98 ± 17 ng/mL
[2]; [4]
  Tmax: 0.633 h
[2]; [5]
  half-life: 2.92 ± 0.217 h
[2]; [6]
  absorption phase in the plasma concentration-time curve: single and plateau absorption phase

## COc1ccc(-c2coc3cc(O[C@@H]4O[C@H](CO)[C@@H](O)[C@H](O)[C@H]4O)ccc3c2=O)cc1 [Ononin, ononin]
[1]; concentration 1 (µg/mL)
  Stability (%) Autosampler stability: 4.7±7.7%
  Stability (%) Short-term stability: 12±6.3%
  Stability (%) Freeze-thaw stability: 3.9±6.4%
  Stability (%) Long-term stability: −7.2±10%
[1]; concentration 10 (µg/mL)
  Stability (%) Autosampler stability: −7.0±1.4%
  Stability (%) Short-term stability: −12±4.6%
  Stability (%) Freeze-thaw stability: −2.5±7.3%
  Stability (%) Long-term stability: −6.2±2.9%
[1]; concentration 100 (µg/mL)
  Stability (%) Autosampler stability: 8.1±3.8%
  Stability (%) Short-term stability: 6.7±2.1%
  Stability (%) Freeze-thaw stability: 4.2±1.3%
  Stability (%) Long-term stability: 3.2±3.9%
[2]; [3]
  Cmax: 19 ± 4.5 ng/mL
[2]; [4]
  Tmax: 0.583 h
[2]; [5]
  half-life: 2.23 ± 0.16 h
[2]; [6]
  absorption phase in the plasma concentration-time curve: single and plateau absorption phase

## CC(C)(O)[C@@H]1CC[C@](C)([C@H]2[C@@H](O)C[C@@]3(C)[C@@H]4C[C@H](O[C@@H]5O[C@H](CO)[C@@H](O)[C@H](O)[C@H]5O)[C@H]5C(C)(C)[C@@H](O[C@@H]6OC[C@@H](O)[C@H](O)[C@H]6O)CC[C@@]56C[C@@]46CC[C@]23C)O1 [Astragaloside IV, astragaloside IV]
[1]; concentration 1 (µg/mL)
  Stability (%) Autosampler stability: 3.8±9.8%
  Stability (%) Short-term stability: 12±15%
  Stability (%) Freeze-thaw stability: −3.2±5.0%
  Stability (%) Long-term stability: −17±5.3%
[1]; concentration 10 (µg/mL)
  Stability (%) Autosampler stability: 3.3%
  Stability (%) Short-term stability: 4.7±6.2%
  Stability (%) Freeze-thaw stability: −4.1±3.4%
  Stability (%) Long-term stability: −6.3±8.8%
[1]; concentration 100 (µg/mL)
  Stability (%) Autosampler stability: −8.6±12%
  Stability (%) Short-term stability: 1.6±9.1%
  Stability (%) Freeze-thaw stability: 6.1±0.4%
  Stability (%) Long-term stability: 2.1±13.5%
[2]; male, Sprague-Dawley, in vivo, po, rat plasma, BYHWT extract 10 g/kg p.o., n = 6, read-out: Cmax
  Cmax: 100 ± 16 ng/mL
[2]; male, Sprague-Dawley, in vivo, po, rat plasma, BYHWT extract 10 g/kg p.o., n = 6, read-out: Tmax (converted)
  Tmax: 0.583 h
[2]; male, Sprague-Dawley, in vivo, po, rat plasma, BYHWT extract 10 g/kg p.o., n = 6, read-out: t1/2
  half-life: 2.83 ± 0.138 h
[2]; [6]
  absorption phase in the plasma concentration-time curve: double-peak absorption phase

## CC(=O)O[C@H]1[C@H](O[C@H]2CC[C@]34C[C@]35CC[C@]3(C)[C@@H]([C@@]6(C)CC[C@@H](C(C)(C)O)O6)[C@@H](O)C[C@@]3(C)[C@@H]5C[C@H](O[C@@H]3O[C@H](CO)[C@@H](O)[C@H](O)[C@H]3O)[C@H]4C2(C)C)OC[C@@H](O)[C@@H]1O [Astragaloside II, astragaloside II]
[1]; concentration 1 (µg/mL)
  Stability (%) Autosampler stability: 13±10%
  Stability (%) Short-term stability: 2.4±12%
  Stability (%) Freeze-thaw stability: 4.4±3.6%
  Stability (%) Long-term stability: 8.7±10%
[1]; concentration 10 (µg/mL)
  Stability (%) Autosampler stability: −0.3±11%
  Stability (%) Short-term stability: −1.3±1.9%
  Stability (%) Freeze-thaw stability: −2.3±0.8%
  Stability (%) Long-term stability: −0.8±16%
[1]; concentration 100 (µg/mL)
  Stability (%) Autosampler stability: −5.4±13%
  Stability (%) Short-term stability: −6.8±5.7%
  Stability (%) Freeze-thaw stability: 0.4±1.2%
  Stability (%) Long-term stability: 1.7±21%
[2]; male, Sprague-Dawley, rat, in vivo, po
  Cl: 129 ± 15 mL/min/kg
[2]; [7]
  Cmax: 30 ± 4.9 ng/mL
  Tmax: 0.617 h
  half-life: 3.53 ± 0.233 h
[2]; rat, in vivo, po, 10 g/kg
  AUC: 190 ± 38.3 ng·h/mL

## C[C@@]12C[C@@]3(O)O[C@@H](O1)[C@]1(COC(=O)c4ccccc4)[C@H]3C[C@@]12O[C@@H]1O[C@H](CO)[C@@H](O)[C@H](O)[C@H]1O [Paeoniflorin, paeoniflorin]
[1]; concentration 10 (µg/mL)
  Stability (%) Autosampler stability: −3.3±7.3%
  Stability (%) Short-term stability: 7.7±10%
  Stability (%) Freeze-thaw stability: 7.3±4.6%
  Stability (%) Long-term stability: 21±15%
[1]; concentration 100 (µg/mL)
  Stability (%) Autosampler stability: −1.6±8.2%
  Stability (%) Short-term stability: −1.8±9.4%
  Stability (%) Freeze-thaw stability: 2.1±1.8%
  Stability (%) Long-term stability: 10±7.3%
[1]; concentration 1000 (µg/mL)
  Stability (%) Autosampler stability: 8.5±5.1%
  Stability (%) Short-term stability: 11±8.4%
  Stability (%) Freeze-thaw stability: 9.5±0.2%
  Stability (%) Long-term stability: 27±9.9%
[2]; [3]
  Cmax: 97 ± 33 ng/mL
[2]; [4]
  Tmax: 0.583 h
[2]; [5]
  half-life: 1.55 ± 0.533 h
[2]; [6]
  absorption phase in the plasma concentration-time curve: single and plateau absorption phase

## O=c1[nH]cnc2nc[nH]c12 [hypoxanthine]
[2]; preliminary experiments
  observed in rat plasma after oral administration of BYHWT: could not be observed
